According to the supplement of paper PMC6045584:
± gives the standard deviation of the averaged measurements.

Key:
OSI-906 [1] = compound: T1, C[C@]1(O)C[C@@H](c2nc(-c3ccc4ccc(-c5ccccc5)nc4c3)c3c(N)nccn32)C1 [OSI-906]; assay: surviving fraction relative to DMSO-only wells; higher = less growth inhibition; conditions: exposure time: 5 days
Method in brief: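 Inhibitors were tested at 0.5, 1, 5, 10, 50, 100, 500 and 1000 nM, applied continuously for five days beginning 24 hours after log-phase tumour cells were seeded at 250–500 per well in 384-well plates. CellTiter-Glo luminescence served as the viability measure, expressed as surviving fraction against the median of DMSO-only wells. Each line, screened three times, was kept only with replicate Pearson r >0.7 and median Z' >0.3.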

[2] = compound: CC(=O)NCC(=O)N1[C@@H]2CC[C@H]1c1ccc(Nc3ncc(C(F)(F)F)c(NC4CCC4)n3)cc12; assay: area under dose-response curve of surviving fraction (unscaled, Aref=0) (surviving fraction x log10(nM)); higher = more resistant; conditions: exposure time: 5 days; dose range 0.5-1000 nM
Method in brief: (§1)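 Tumour cell lines in 384-well plates were exposed for five days to eight inhibitor concentrations from 0.5 to 1000 nM. Viability was read by CellTiter-Glo luminescence, normalised to DMSO-only wells, in three screens per line. Dose-response survival curves were fitted to surviving fractions by 3-parameter logistic regression in the drc R package. Area under the curve is the unscaled activity area (Aref = 0) over log10 dose.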

PACLITAXEL = compound: CC(=O)O[C@H]1C(=O)[C@@]2(C)[C@H]([C@H](OC(=O)c3ccccc3)[C@]3(O)C[C@H](OC(=O)[C@H](O)[C@@H](NC(=O)c4ccccc4)c4ccccc4)C(C)=C1C3(C)C)[C@]1(OC(C)=O)CO[C@@H]1C[C@@H]2O [PACLITAXEL]; assay: as above; conditions: exposure time: 5 days; dose range 0.5-1000 nM
Method in brief: as §1

[3] = compound: CC(=O)c1c(C)c2cnc(Nc3ccc(N4CCNCC4)cn3)nc2n(C2CCCC2)c1=O; assay: as above; conditions: exposure time: 5 days; dose range 0.5-1000 nM
Method in brief: as §1

CAMPTOTHECIN = compound: CC[C@@]1(O)C(=O)OCc2c1cc1n(c2=O)Cc2cc3ccccc3nc2-1 [CAMPTOTHECIN]; assay: as above; conditions: exposure time: 5 days; dose range 0.5-1000 nM
Method in brief: as §1

YM155 = compound: COCC[n+]1c2c(n(Cc3cnccn3)c1C)C(=O)c1ccccc1C2=O [YM155]; assay: as above; conditions: exposure time: 5 days; dose range 0.5-1000 nM
Method in brief: as §1

GEFITINIB = compound: COc1cc2ncnc(Nc3ccc(F)c(Cl)c3)c2cc1OCCCN1CCOCC1 [GEFITINIB]; assay: as above; conditions: exposure time: 5 days; dose range 0.5-1000 nM
Method in brief: as §1

OSI-906 [4] = compound: T1, OSI-906; assay: as above; conditions: exposure time: 5 days; dose range 0.5-1000 nM
Method in brief: as §1

CELECOXIB = compound: Cc1ccc(-c2cc(C(F)(F)F)nn2-c2ccc(S(N)(=O)=O)cc2)cc1 [CELECOXIB]; assay: as above; conditions: exposure time: 5 days; dose range 0.5-1000 nM
Method in brief: as §1

CARBOPLATIN = compound: O=C(O)C1(C(=O)O)CCC1.[NH2-].[NH2-].[Pt+2] [CARBOPLATIN]; assay: as above; conditions: exposure time: 5 days; dose range 0.5-1000 nM
Method in brief: as §1

Test System | surviving fraction (OSI-906 [1]; 0.5 nM) | surviving fraction (OSI-906 [1]; 1 nM) | surviving fraction (OSI-906 [1]; 5 nM) | surviving fraction (OSI-906 [1]; 10 nM) | surviving fraction (OSI-906 [1]; 50 nM) | surviving fraction (OSI-906 [1]; 100 nM) | surviving fraction (OSI-906 [1]; 500 nM) | surviving fraction (OSI-906 [1]; 1000 nM) | area under dose-response curve [2] | area under dose-response curve (PACLITAXEL) | area under dose-response curve [3] | area under dose-response curve (CAMPTOTHECIN) | area under dose-response curve (YM155) | area under dose-response curve (GEFITINIB) | area under dose-response curve (OSI-906 [4]) | area under dose-response curve (CELECOXIB) | area under dose-response curve (CARBOPLATIN)
93VU HEADNECK | 0.821 ± 0.057 | 0.793 ± 0.053 | 0.836 ± 0.041 | 0.809 ± 0.13 | 0.974 ± 0.069 | 0.848 ± 0.014 | 0.711 ± 0.021 | 0.724 ± 0.23 | 2.61 | 1.04 | 3.72 | 1.8 | 2.62 | 2.74 | 2.69 | 3.54 | 4.03
A549 LUNG | 0.932 ± 0.016 | 0.943 ± 0.028 | 0.948 ± 0.0087 | 0.931 ± 0.013 | 0.96 ± 0.029 | 0.97 ± 0.031 | 0.935 ± 0.027 | 0.908 ± 0.025 | 2.54 | 1.32 | 3.48 | 1.62 | 1.83 | 3.46 | 3.1 | 3.51 | 3.54
C33A CERVIX | 0.981 ± 0.054 | 0.945 ± 0.052 | 1.08 ± 0.011 | 1.1 ± 0.053 | 1.02 ± 0.13 | 1.05 ± 0.14 | 1.06 ± 0.096 | 0.985 ± 0.011 | 2.24 | 0.98 | 3.67 | 1.24 | 0.324 | 2.98 | 3.42 | 3.25 | 4.12
CAL51 BREAST | 0.958 ± 0.023 | 0.924 ± 0.018 | 0.9553 ± 0.0093 | 0.94 ± 0.087 | 1.01 ± 0.02 | 0.992 ± 0.031 | 0.948 ± 0.029 | 0.922 ± 0.074 | 2.15 | 0.546 | 3.21 | 1.36 | 0.772 | 3.42 | 3.16 | 3.45 | 3.33
CAL72 BONE | 1.009 ± 0.006 | 1 ± 0.018 | 0.998 ± 0.049 | 0.966 ± 0.058 | 1 ± 0.038 | 0.98 ± 0.028 | 0.893 ± 0.048 | 0.861 ± 0.082 | 2.9 | 0.96 | 3.69 | 1.67 | 1.02 | 3.5 | 3.22 | 3.49 | 3.49
CAL120 BREAST | 0.895 ± 0.052 | 0.907 ± 0.054 | 0.937 ± 0.041 | 0.942 ± 0.026 | 0.901 ± 0.04 | 0.9 ± 0.066 | 0.895 ± 0.046 | 0.893 ± 0.058 | 2.64 | 0.641 | 3.17 | 1.05 | 0.732 | 3.22 | 3 | 3.26 | 3.13
CASKI CERVIX | 0.826 ± 0.028 | 0.849 ± 0.029 | 0.814 ± 0.049 | 0.798 ± 0.038 | 0.976 ± 0.067 | 0.965 ± 0.064 | 0.982 ± 0.068 | 0.982 ± 0.051 | 2.28 | 0.492 | 3.41 | 1.07 | 1.37 | 2.15 | 2.98 | 3.15 | 3.19
COLO320DM LARGE INTESTINE | 1.03 ± 0.099 | 1.09 ± 0.065 | 1.09 ± 0.023 | 1.01 ± 0.049 | 0.875 ± 0.04 | 0.818 ± 0.076 | 0.572 ± 0.048 | 0.528 ± 0.032 | 2.35 | 2.1 | 3.25 | 1.14 | 2.37 | 4.07 | 3 | 3.75 | 4.1
G292 BONE | 0.923 ± 0.032 | 0.929 ± 0.035 | 0.929 ± 0.04 | 0.919 ± 0.034 | 0.728 ± 0.059 | 0.624 ± 0.021 | 0.579 ± 0.04 | 0.553 ± 0.045 | 2.24 | 0.722 | 3.05 | 1.35 | 1.47 | 3.36 | 2.59 | 3.34 | 3.42
H23 LUNG | 0.902 ± 0.047 | 0.897 ± 0.044 | 0.931 ± 0.05 | 0.904 ± 0.03 | 0.879 ± 0.031 | 0.848 ± 0.061 | 0.662 ± 0.016 | 0.607 ± 0.03 | 2.73 | 0.876 | 3.51 | 1.1 | 0.646 | 2.37 | 2.81 | 3.59 | 3.55
HCC38 BREAST | 0.958 ± 0.13 | 0.883 ± 0.083 | 1.06 ± 0.09 | 0.902 ± 0.12 | 1.1 ± 0.19 | 1.12 ± 0.019 | 1.16 ± 0.14 | 1.07 ± 0.24 | 2.71 | 0.609 | 3.95 | 1.16 | 1.05 | 3.99 | 3.25 | 4.1 | 3.4
HCC1806 BREAST | 0.722 ± 0.032 | 0.721 ± 0.093 | 0.783 ± 0.11 | 0.822 ± 0.03 | 0.962 ± 0.077 | 1.07 ± 0.064 | 0.883 ± 0.04 | 0.826 ± 0.036 | 2.62 | 0.267 | 3.44 | 0.682 | 1.02 | 2.94 | 2.83 | 3.65 | 3.64
HCC1954 BREAST | 0.33 ± 0.0085 | 0.37 ± 0.012 | 0.384 ± 0.046 | 0.475 ± 0.025 | 0.457 ± 0.063 | 0.384 ± 0.012 | 0.314 ± 0.04 | 0.35 ± 0.023 | 3.09 | 0.63 | 3.1 | 0.947 | 1.4 | 2.73 | 1.26 | 3.51 | 3.62
HCT15 LARGE INTESTINE | 0.829 ± 0.073 | 0.82 ± 0.048 | 0.811 ± 0.069 | 0.871 ± 0.086 | 0.929 ± 0.061 | 0.918 ± 0.023 | 0.911 ± 0.073 | 0.921 ± 0.04 | 2.05 | 1.76 | 3.59 | 0.543 | 2.03 | 3.44 | 2.9 | 3.49 | 3.51
HELA CERVIX | 0.971 ± 0.033 | 0.981 ± 0.054 | 0.955 ± 0.069 | 0.88 ± 0.09 | 1.03 ± 0.035 | 1.07 ± 0.036 | 1 ± 0.081 | 1.01 ± 0.048 | 2.21 | 0.718 | 3.5 | 1.99 | 1.07 | 3.66 | 3.27 | 3.64 | 3.53
